Laboratory results as given in patent US11530244B2, “Cyclic polypeptides for PCSK9 inhibition” (priority 2018, dated 2022).
Read-outs that look alike come from different tables or passages of the source. Starred links: 1 amine or outer side, 2 acyl side, 3 side chain; linkers in the order of their positions; H or OH if unused. Positions of bridges follow the written chain, without caps; N, C: chain ends. Non-standard residues stand in square brackets, D forms with d. Residues, ends and D or L forms follow the SMILES beside them. X14 = CCOP(=O)(OCC)C(F)(F)c1ccc(C[C@H](N[*:1])C(=O)[*:2])cc1; Phe(3-CH2NH2) = O=C([C@H](Cc1cccc(CN[*:3])c1)N[*:1])[*:2]; Nle(6-ylidene) = O=C([C@H](CCCC=[*:3])N[*:1])[*:2]; X25 = O=C([C@H](Cc1cccc(OCC=[*:3])c1)N[*:1])[*:2]; Trp(5-F) = N[C@@H](Cc1c[nH]c2ccc(F)cc12)C(=O)O; Trp(7-aza) = N[C@@H](Cc1c[nH]c2ncccc12)C(=O)O; X4 = O=C(CCSCc1cccc(CSCCN[*:1])c1)[*:2]; TBMB = c1c(C[*:1])cc(C[*:3])cc1C[*:2]; mXylylene = c1cc(C[*:1])cc(C[*:2])c1; d(aThr) = C[C@@H](O)[C@@H](N)C(=O)O; X6 = O=C(Cc1ccc(CN[*:2])cc1)[*:1]; β3hT = C[C@@H](O)[C@H](N)CC(=O)O; Aad = N[C@@H](CCCC(=O)O)C(=O)O; αMeP = C[C@@]1(C(=O)O)CCCN1; Mpa = O=C(O)CCS

What was measured:
[1] = target: human PCSK9 / human LDLR EGFa domain interaction (Homo sapiens (Human), UniProt Q8NBP7); assay: TR-FRET assay of inhibition of the PCSK9-LDLR protein-protein interaction; assay type: binding
Sequence of human PCSK9 / human LDLR EGFa domain interaction (Q8NBP7 153-692): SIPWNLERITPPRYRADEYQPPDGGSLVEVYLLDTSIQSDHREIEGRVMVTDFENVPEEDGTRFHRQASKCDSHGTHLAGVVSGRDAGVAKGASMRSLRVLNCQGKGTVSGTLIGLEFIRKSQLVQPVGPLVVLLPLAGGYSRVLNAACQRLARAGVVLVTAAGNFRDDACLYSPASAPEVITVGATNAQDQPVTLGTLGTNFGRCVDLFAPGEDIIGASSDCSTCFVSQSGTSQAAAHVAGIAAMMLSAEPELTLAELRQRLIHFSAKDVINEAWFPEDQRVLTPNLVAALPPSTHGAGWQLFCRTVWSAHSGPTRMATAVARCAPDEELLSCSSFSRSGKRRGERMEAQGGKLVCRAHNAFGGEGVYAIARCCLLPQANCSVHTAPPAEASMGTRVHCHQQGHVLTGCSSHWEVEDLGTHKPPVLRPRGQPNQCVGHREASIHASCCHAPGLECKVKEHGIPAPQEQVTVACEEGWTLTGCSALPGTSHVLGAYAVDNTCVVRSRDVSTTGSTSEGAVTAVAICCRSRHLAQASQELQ
Sequence of human PCSK9 / human LDLR EGFa domain interaction (Q8NBP7 31-152 partner): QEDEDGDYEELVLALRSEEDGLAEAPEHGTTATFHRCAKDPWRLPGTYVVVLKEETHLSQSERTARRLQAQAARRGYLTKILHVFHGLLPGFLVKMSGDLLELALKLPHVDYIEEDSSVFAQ
Method in brief: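 Half-maximal inhibition was derived by 4-parameter fitting of dose-response TR-FRET data. Each well held 20 nM His-LDLR EGFa, 20 nM avitag-biotinylated PCSK9, Eu-anti-6×His and Ulight-streptavidin (5 nM each) in 50 mM HEPES, 150 mM NaCl, 5 mM CaCl2, 0.01% BSA, 0.01% Surfactant P20, incubated 2 h at room temperature.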

PCSK9 = PCSK9 (Homo sapiens (Human), UniProt Q8NBP7); assay: PCSK9 Alexa FRET Standard assay (displacement of AlexaFluor647 tagged cyclic peptide Reagent A); assay type: binding; settings: 0.5 nM PCSK9, 20 nM AF cyclic peptide Reagent A
Sequence of PCSK9 (Q8NBP7 153-692): as the sequence (Q8NBP7 153-692) above
Method in brief: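 TR-FRET displacement: 0.5 nM biotinylated PCSK9 with 1.25 nM Strep-Eu and 20 nM AlexaFluor-tagged cyclic peptide (final) in 50 mM HEPES pH 7.4, 0.15 M NaCl, 5 mM CaCl2, 0.01% BSA, 0.01% P20, ≥2 h at room temperature. IC50 from sigmoidal fit, converted to Ki via peptide KD; falling Eu counts flagged false positives.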

[2] = TR-FRET, 20 nM human PCSK9, 20 nM human LDLR EGFa domain, 2 hours room temperature, read-out: IC50
[3] = PCSK9 Alexa FRET Standard assay, read-out: IC50

IC50 [1, 2] [µM]	IC50 (PCSK9; [3]) [µM]	SMILES	IC50 [1] [µM]	IC50 (PCSK9; IC50, PCSK9 Alexa FRET Standard assay) [µM]
0.0001 to 0.1	0.00011 to 0.1	C[C@@H](O)[C@H]1CC(=O)N[C@@H](Cc2ccc(O)cc2)C(=O)N2CCC[C@@]2(C)C(=O)N[C@H](C(N)=O)CSCc2cccc(c2)CSCCC(=O)N[C@@H](CCCCN)C(=O)NCC(=O)N[C@@H](Cc2c[nH]c3ccc(F)cc23)C(=O)N[C@@H](Cc2c[nH]c3ccc(F)cc23)C(=O)N2CCC[C@H]2C(=O)N1 [Compound 051] ([Mpa]KG[Trp(5-F)][Trp(5-F)]P[β3hT]Y[αMeP]C-NH2; linker 1-10 via mXylylene)	–	–
0.0001 to 0.1	1 to 12.1	COc1ccc(C[C@@H]2NC(=O)[C@@H]([C@@H](C)O)NC(=O)[C@H](CCCC(=O)O)NC(=O)[C@H](Cc3c[nH]c4ccc(F)cc34)NC(=O)[C@H](Cc3cccc(CN)c3)NC(=O)[C@@H](C)NC(=O)[C@H](C)NC(=O)CCSCc3cccc(c3)CSCCNC(=O)[C@]3(C)CCCN3C2=O)cc1 [Compound 346] (cyclo(A[dA][Phe(3-CH2NH2)][Trp(5-F)][Aad][d(aThr)]Y(Me)[αMeP][X4]))	–	–
1 to 12.1	1 to 12.1	COc1ccc(C[C@@H]2NC(=O)[C@H](Cc3cnc[nH]3)NC(=O)[C@H](CC(=O)O)NC(=O)[C@H](Cc3c[nH]c4ccc(F)cc34)NC(=O)[C@H](Cc3c[nH]c4ccc(F)cc34)NC(=O)[C@@H](C)NC(=O)[C@H](NC(C)=O)CCCCNC(=O)Cc3ccc(cc3)CNC(=O)C[C@@H](C(N)=O)NC(=O)[C@]3(C)CCCN3C2=O)cc1 [Compound 397] (Ac-[dK][dA][Trp(5-F)][Trp(5-F)]DHY(Me)[αMeP]D-NH2; linker 1-9 via X6)	–	–
1 to 12.1	1 to 12.1	COc1ccc(C[C@@H]2NC(=O)[C@H]([C@@H](C)O)NC(=O)[C@@H]3CCC/C=C/COc4cccc(c4)C[C@H](NC(=O)[C@@H](C)NC(=O)[C@H](CCCCN)NC(=O)CCSCc4cccc(c4)CSCCNC(=O)[C@]4(C)CCCN4C2=O)C(=O)N[C@@H](Cc2c[nH]c4ccc(F)cc24)C(=O)N3)cc1 [Compound 494] (cyclo(K[dA][X25][Trp(5-F)][Nle(6-ylidene)]TY(Me)[αMeP][X4]); staple (E) 3-5)	–	–
1 to 12.1	1 to 12.1	CCCCCCCCCCCCCCCC(=O)N[C@@H](CCC(=O)NCCOCCOCC(=O)NCCOCCOCC(=O)NCCCC[C@H](NC(=O)CCOCCOCCOCCOCCOCCOCCOCCOCCNC(=O)CCOCCOCCOCCOCCOCCOCCOCCOCCOCCOCCOCCOCCNC(=O)[C@@H]1CSCc2cccc(c2)CSCCC(=O)N[C@@H](C)C(=O)N[C@H](C)C(=O)N[C@@H](Cc2c[nH]c3ccc(F)cc23)C(=O)N[C@@H](Cc2c[nH]c3ccc(F)cc23)C(=O)[C@@H]2C[C@H](F)CN2C(=O)N[C@@H]([C@@H](C)O)C(=O)N[C@@H](Cc2ccc(O)cc2)C(=O)N2CCC[C@@]2(C)C(=O)N1)C(N)=O)C(=O)O [Compound 133]	–	–
1 to 12.1	1 to 12.1	Cc1cc2cc(c1)CSC[C@@H](C(N)=O)NC(=O)[C@]1(C)CCCN1C(=O)[C@H](Cc1ccc(O)cc1)NC(=O)[C@H](Cc1c[nH]cn1)NC(=O)[C@H](CC(=O)O)NC(=O)[C@H](Cc1c[nH]c3ccc(F)cc13)NC(=O)[C@H](Cc1c[nH]c3ccc(F)cc13)NC(=O)CNC(=O)[C@H](CCCCN)NC(=O)CCSC2 [Compound 357] ([Mpa]KG[Trp(5-F)][Trp(5-F)]DHY[αMeP]C-NH2; linker 1-10 via TBMB)	–	–
–	–	CCOP(=O)(OCC)C(F)(F)c1ccc(C[C@@H]2NC(=O)[C@H]([C@@H](C)O)NC(=O)[C@@H]3CCCN3C(=O)[C@H](Cc3c[nH]c4ccc(F)cc34)NC(=O)[C@H](Cc3c[nH]c4ccc(F)cc34)NC(=O)[C@@H](C)NC(=O)[C@H](CCCCN)NC(=O)CCSCc3cccc(c3)CSCCNC(=O)[C@]3(C)CCCN3C2=O)cc1 [Compound 131] (cyclo(K[dA][Trp(5-F)][Trp(5-F)]PT[X14][αMeP][X4]))	0.1 to 1	1 to 12.1
0.0001 to 0.1	0.1 to 1	C[C@@]12CCCN1C(=O)[C@H](Cc1c[nH]c3ncccc13)NC(=O)[C@H](Cc1cnc[nH]1)NC(=O)[C@H](CC(=O)O)NC(=O)[C@H](Cc1c[nH]c3ccc(F)cc13)NC(=O)[C@H](Cc1c[nH]c3ccc(F)cc13)NC(=O)CNC(=O)[C@H](CCCCN)NC(=O)CCSCc1cccc(c1)CSC[C@@H](C(N)=O)NC2=O [Compound 360] ([Mpa]KG[Trp(5-F)][Trp(5-F)]DH[Trp(7-aza)][αMeP]C-NH2; linker 1-10 via mXylylene)	–	–

SMILES	IC50 [1, 2] [µM]	IC50 (PCSK9; [3]) [µM]	IC50 [1] [µM]	IC50 (PCSK9; IC50, PCSK9 Alexa FRET Standard assay) [µM]
COc1ccc(C[C@@H]2NC(=O)[C@H](Cc3cnc[nH]3)NC(=O)[C@H](CC(=O)O)NC(=O)[C@H](Cc3c[nH]c4ccc(F)cc34)NC(=O)[C@H](Cc3c[nH]c4ccc(F)cc34)NC(=O)[C@@H](C)NC(=O)[C@H](NC(C)=O)CCCCNC(=O)Cc3ccc(cc3)CNC(=O)CCC[C@@H](C(N)=O)NC(=O)[C@]3(C)CCCN3C2=O)cc1 [Compound 523] (Ac-[dK][dA][Trp(5-F)][Trp(5-F)]DHY(Me)[αMeP][Aad]-NH2; linker 1-9 via X6)	0.0001 to 0.1	0.1 to 1	–	–
